In series [1] the test system is NNK-induced pulmonary adenomas. Description: NNK-induced lung tumorigenesis. In kind it is in vivo. The conditions noted are these: mice, drug by injection 20 mg/kg daily, 10 μmol NNK i.p., sixteen weeks. On the procedure: Every group had 20 mice For treatment group, each mouse was gave Drug by injection at dose of 20 mg/kg daily. For control group, each mouse was gave same volume of physiological saline Three days later, mice were gave 10 μmol NNK (in 0.1 ml saline) by i.p injection. Sixteen weeks after these treatments the mice were killed and pulmonary adenomas were counted The statistical significance of bioassay data was determined by student's test.

The next series deals with carcinogen-DNA binding. The experiment in a line: Inhibition of carcinogen-DNA binding. The format is cell-based. As for the experimental part:
Cells were maintained in 75-cm^2 tissue culture flask with media supplemented with retinoic acid (0 1 μg/ml) and epinephrine (0 5 μg/ml) The cells were passage when they reached approximately 80% confluence and were maintained at 37° C. in 5% CO2. Cells were plated at a density of 5×10^5 cells/well in 6-well tissue culture plates and allowed to incubated for 18 h at 37° C. in 5% CO2 Following incubation, the DNA was harvested and resuspended in Tris-EDTA buffer RNA was removed by treating with RNase T1 and RNase A at 37° C. for 1 h. An aliquot was used for determining the DNA content by the absorbency at 260 nm, and the rest of the sample was used to determine the radioactivity; the percentage inhibition of carcinogen-DNA binding was determined by measuring the cpm/mg of DNA in the carcinogen

Series [2] can be described thus: Toxic doses for mice (repeated injection). To be noted: 38 normal mice, injection 2 mg/kg/day×5, observation period of 5 days. The format is in vivo. As for the experimental part: Toxic doses for dogs 0 16 mg/kg/day×7 of HHT was established as the toxic doses. Toxic doses for mice In 38 normal mice after injection of HHT of 2 mg/kg/day×5 with the observation period of 5 days about 50% of the mice died.

For a further series, the system named is L615 transplanted tumor. The experiment in a line: Growth of transplanted tumor in mice. The format is in vivo. To be noted: intraperitoneally, other drugs 20 mg/kg, sacrificed on the 12th day. On the procedure: Male mice, weight 20-22 g, were used in the experiment 1×10^7 tumor cells were injected to mouse and other drugs injected intraperitoneally began second day. All mice were sacrificed on the 12th day, isolated the tumor and weighed and calculated the inhibition rate of tumor weight
The effect of other drugs and HHT on the growth of animal transplanted tumor as illustrated by the Table 6 20 mg/kg of other drugs could inhibit the growth of L615 transplanted tumor.

The next series concerns tyrosine kinase (TK). Description: Tyrosine kinase (TK) assay of HL-60 leukemia cells. The format is cell-based, human. On the procedure:
Tyrosine kinase (TK) Assay. TK was measured by a modification of the method of Braun et al Briefly, H-60 leukemia cells were plated at a density of 5×10^5 cells in […], and divided control and treatments groups for incubation 24 hours at 37° C. with 5% CO2. The cells were collected by scraping, washed twice with phosphate-buffered saline, and resuspended at density of 10^6 cells/ml in 5 mM HEPESs buffer (pH 7.4). The cells were then resuspended in 1 ml of buffer containing 5 mM HEPES (pH 7.6), 1 mM MgCl2 and ImM EDTA, then placed on ice bath The cell membrane was disrupted by ultra sound and centrifuged at 1,000×g for 10 minutes The supernatant was ultra centrifuged at 30,000×g for 30 minutes at 4° C. The pellet was resuspended in 0 3 ml of buffer containing 25 mM HEOES, centrifuged at 12,000×g for 5 minutes The resulting supernatant was used for TK assay. Content of protein was determined 10 μg of protein placed in 20 mM HEPES (pH 7 6), 15 mM MgCl2, 10 nM ZnCl2 and 5% (v/v) nonidet P-40, with or without substrate [glutamic acid (GT), mg/ml]. After 5 minutes incubation at 25° C., the reaction was initiated by the addition of 25 μM [γ^32P] ATP (3 ci/mmol) After 10 minutes, the reaction was stopped by the addition of 20 mM cold ATP. 50 μl of the mixtures were spotted on glass microfiber filter discs and washed three times with cold trichloroacetic acid (TCA), contained 1 mM sodium pyrophosphate Air dried. Radioactivity was determined by liquid scintillation spectrometry. The net TK activity was determined after correcting for endogenous TK activity

In another series the test system is HL-60 cells. The experiment in a line: Diversion (differentiation) of human leukemic cells, NBT reduction. In kind it is cell-based. To be noted: IND, MAT, YLE, LIK, APN and PYE 50 ng/ml, higher NBT (%) means higher normal cells. On the procedure: HL-60 cells were established from a patient with acute myeloid leukemia. The cells were cultured in culture flasks with RPMI plus 10% FCS
Differentiation of HL-60 cells was assessed by their abilities to produced superoxide as measured by reduction of NBT, by NSE staining and by morphology as detected on cytospin preparations stained with Diff-Quick stain Set, and by analysis of membrane-bound differentiation markers with two-color immunofluorescence Briefly, cells were preincubated at 4° C. for 60 min in 10% human AB serum and then with FITC-conjugated mouse IgGI isotype control Analysis of fluorescence was performed on a flow cytometer.
NBT % indicated percentage of normal cells

For series [3], the system named is Human leukemia cells (HL-60). Description: Apoptosis of human leukemia cells. The format is cell-based. As for the experimental part: Human leukemia cells (HL-60) were grown in RPMI Medium 1640 supplemented with 10% (v/v) heat-inactivated FBS (56° C. for 30 min) at 37° C. in a humidified 95% air/5% CO2 atmosphere. Cells were seeded at a level of 2×10^5 cells/ml Cells were allowed to attain a maximum density of 1 2×10^6 cells/ml before being passed by dilution into fresh medium to a concentration of 2×10^5 cells/ml Cell pellets containing 5×10^6 cells were fixed with 2 5% glutaraldehyde in cacodylate buffer (pH 7 4), dehydrated through graded alcohol, and infiltrated with LX-112 epoxy resin. After overnight polymerization at 60° C. 1-μm sections were cut with glass knives using a microtome.
(§1) Cells ([…] were incubated in 10 ml IMDM plus […] heat-inactivated fetal calf serum. Samples were incubated for 24 hours with various concentrations of drugs Control samples received the same amount of media, without drug addition After 24 hours of incubation the samples were pelleted and fixed in ethanol 705 for 15 minutes at 4° C., after three washes in PBS, the cells were treated with PNase I 0.5 mg/ml for 15 minutes at 37° C. The cells were harvested by centrifugation and resuspended in 50 μg/ml propidium iodide in PBS. Analysis (upon acquisition of 10,000-20,000 events) was performed on a FACscan flow cytometer with the FL2 detector in logarithmic mode, using Lysis II software (Becton Dickinson). Apoptotic cells were located in the hypodiploid region of the histogram, due to chromosome condensation and fragmentation
(§2) For evaluation of apoptosis by flow cytometry, cells were fixed and permeabilized in 1% paraformaldehyde and ice-cold 70% ethanol Digoxigenin-dUTP was incorporated at the 3′OH ends of the fragmented DNA in the presence of terminal deoxynucleotidyltranserase, and the cells were incubated with FITC-labeled anti-digoxigenin-dUTP and with propidium iodide. Green (apoptotic cells) and orange (total DNA) fluorescence were measured with a FACScan flow cytometer and analyzed with LYSIS It and CELLFIT programs Data were analyzed by Student's t-test P values were considered significant when <0.05.
(§3) Untreated and treated HL-60 cells collected by centrifugation, washed in phosphate buffered saline and re-suspended at a concentration of 5×10^6 cells and 0.1% RNase A. The mixture was incubated at 37° C. for 30 min and then incubated for an additional 30 min at 37° C. Buffer was added and 25 μl of the tube content transferred to the Horizontal 1.5% agarose gel electrophoresis was performed at 2 V/cm DNA in gels visualized under UV light after staining with ethidium Bromide (5 μg/ml)
DNA fragmentation assays DNA cleavage was performed, quantitation of fractional solubilized DNA by diphenylamine assay and the percentage of cells harboring fragmented DNA determined by in labeling techniques For the diphenylamine assay, 5×10^6 cells were lysed in 0 5 mL lysis buffer (5 mmol/L Tris-HCI, 20 mmol/L DTA, and 0 5% Triton X-100, pH 8 0) at 4° C. […] DNA was precipitated with 0.5 N perchloric acid and quantitated using diphenylamine reagent. The cell cycle distribution was determined 4 hours after addition of drug and represents mean±SD of 5 independent experiments
(§4) Apoptosis of HL-60 cells was assessed by changes in cell morphology and by measurement of DNA nicks using the Apop Tag Kkt (Oncor, Gaithersburg, MD). […] These changes are detected on cytospin preparations stained with Diff-Quick Stain Set Apoptotic cells were enumerated in a total of about 300 cells by light microscopy

In a further series the test system is human cancer cells. The experiment in a line: Inhibition of tumor cell proliferation. The format is cell-based. The conditions noted are these: 1 μg/ml drug, 72 hours. As for the experimental part: Human tumor cell lines Hela leukemia HL-60, malignant melanocarcinoma B16, oral epidermoid carcinoma (KB), lung carcinoma (A549), breast carcinoma MCF-7, adenocarcinoma of stomach Animal tumor cell lines Walker carcinoma, LLC-WRC-256, malignant melanoma (RMMI 1846), 3T3, and S-180 sarcoma (CCRF-180). All lines were routinely cultured in the RPMI1640 medium supplemented 20% fetal calf serum. The experiment was carried out in 96 microplate, each well had 5×10^5 cells and given desired concentration of 1 μg /ml (1×10^−6 g/ml) drug Then the plate was incubated at 37° C. in an atmosphere of humidified air enriched with 5 percent carbon dioxide for 72 hours
Inhibition percent rate of tumor cell proliferation was obtained according to the bellow formula [formula]

A further series relates to Normal cells. Description: Apoptosis of normal cells. In kind it is cell-based. On the procedure:
as §1, §2, §3
DNA fragmentation assays DNA cleavage was performed, quantitation of fractional solubilized DNA by diphenylamine assay and the percentage of cells harboring fragmented DNA determined by in labeling techniques For the diphenylamine assay, 5×10^6 cells were lysed in 0 5 mL lysis buffer (5 mmol/L Tris-HCI, 20 mmol/L DTA, and 0 5% Triton X-100, pH 8 0) at 4° C. Lysates were centrifuged (15,000 g) for separation of high molecular weight DNA (pellet) and DNA cleavage products (supernatant). DNA was precipitated with 0.5 N perchloric acid and quantitated using diphenylamine reagent. The cell cycle distribution was determined 4 hours after addition of drug and represents mean±SD of 5 independent experiments
as §4

For series [4], the system named is lipid peroxidation, liver microsome. Description: Lipid peroxidation in liver microsome (MDA, TBA). The format is biochemical, rats. To be noted: drug 50 μM, 37° C. On the procedure:
The liver microsome (1 mg protein) in 0.15 M KCl, 0 25 M Tris-HCl buffer, pH 7.5, 2 mμ ADP, 10 μM FeSO4 and Drug B (50 μM) were incubated at 37° C. for 5 min The reactions were terminated after 30 min by added 2 ml thiobarbituric acid (TBA) and content of the malondialdehyde (MDA) formed was determined.

The subject of a further series is gastric cancer cells. The experiment in a line: Diversion of gastric cancer cells, NBT. In kind it is cell-based. As for the experimental part:
The gastric cancer cells and normal cells were cultured in PRMI 1640 medium supplement with 10% FCS serum Other method is similar to example 10

As for Homoharringtonine [HHT], in series [1], the “Tumor incidence (%)” value is 35.8 ± 4.5%. Besides, the “Inhibition (%) of carcinogen-DNA binding” value in the series with carcinogen-DNA binding is recorded as 56.8 ± 6.2%. In series [2], the mice died result was “about 50%”. Moreover, the “Inhibition (%) of transplanted tumor (tumor weight)” value in the series with L615 transplanted tumor stood at 68 ± 7.2%. In the series with tyrosine kinase (TK) (HL-60, 10^−8 M), the “inhibition of TK activity” value worked out at 12.2%. Further, the “% of control activity (TK)” value is 0.6% in the series on tyrosine kinase (TK) (HL-60 leukemia cells, 10^−6 M, 24 hours); 21.5 ± 4.0% with tyrosine kinase (TK) (HL-60 leukemia cells, 10^−7 M, 24 hours); 87.8 ± 12% in the series with tyrosine kinase (TK) (HL-60 leukemia cells, 10^−8 M, 24 hours); 21.5 ± 4.0% in the series on tyrosine kinase (TK) (Table 8, HHT alone or with other drug, concentration not given). The entries for the “NBT (%)” value in the series on HL-60 cells and in the series with gastric cancer cells were 65 ± 7.0 % and 58 ± 8.9 %, respectively. The “Apoptosis (%)” value in [3] (Human leukemia cell, HHT 50 ng/ml alone or with 50 ng/ml of the other drug (Table 4)) turned out to be 42.8 ± 5.2%; in [3] (Human leukemia cells, HHT 10 ng/ml) it was 33.8 ± 4.8 %; in [3] (Human leukemia cells, HHT 50 ng/ml), 42.8 ± 5.2 %; in series [3] (Human leukemia cells, HHT 100 ng/ml), 60.2 ± 8.9 %; in [3] (Human leukemia cells, HHT 500 ng/ml), 92.0 ± 10.8 %; with Normal cells (HHT 10 ng/ml), 16.5 ± 2.0 %. The “Apoptosis (%)” value in the series on Normal cells (HHT 50 ng/ml) amounted to 18.5 ± 2.5 %; in the series on Normal cells (HHT 50 ng/ml alone or with 50 ng/ml of the other drug (Table 4)), 18.5 ± 2.5%; with Normal cells (HHT 100 ng/ml), 22.0 ± 3.5 %; in the series with Normal cells (HHT 500 ng/ml) it was 29.5 ± 5.2 %. Also, the “Inhibition (%) of growth of cancer cells” value with human cancer cells is 73.8 ± 8.1%. In series [4], the “Nmoles MDA/mg protein” value was 8.5 ± 1.0 Nmoles MDA/mg protein.

Values taken from patent US20040072790A1, “Safe natural pharmaceutical composition for treating cancer” (priority 2002, published 2004).
